Experimental findings from paper PMC7230232, “Secondary Metabolites from the Culture of the Marine-derived Fungus Paradendryphiella salina PC 362H and Evaluation of the Anticancer Activity of Its Metabolite Hyalodendrin” (Marine Drugs, 2020) are described below.

The subject of one experiment is 3T3-F442A cells. Description: MTT cell viability assay, 3T3-F442A pre-adipocytes. Conditions: pure compounds, MTT, read-out: IC50 3T3-F442A. Type of experiment: cell-based, murine. The method, then:
(§1) Cellular viability was determined by the MTT (methylthiazolyldiphenyl-tetrazolium bromide) assay. Briefly, cells were exposed to the indicated concentrations of crude extracts or compounds 1–4 for five doubling times and then incubated for 3 h at 37 °C with MTT. Formazan crystals were then dissolved in DMSO and optical density measured at 570 nm in a microplate reader. The half-maximal inhibitory concentration (IC50) was determined. Values given for crude extracts are averages of at least two experiments done in duplicate. IC50 values calculated for the four isolated compounds and the commercially available 4-hydroxy-tamoxifen (Sigma-Aldrich) are averages of at least three experiments done in duplicate.

The subject of a further experiment is MCF7-Sh-WISP2 cells. Description: MTT cell viability assay, MCF7-Sh-WISP2. Type of experiment: cell-based, human. To be noted: pure compounds, MTT, read-out: IC50 MCF7-Sh-WISP2. The protocol:
as §1

In the next experiment the test system is MCF7 cells. Description: MTT cell viability assay, MCF7. It is filed as cell-based, human. Conditions: MTT, read-out: IC50 MCF7. The method, then: as §1
Experiment [1] has as its system Plasmodium falciparum (chloroquine-resistant FcB1/Colombia strain). Nature of the experiment: Anti-plasmodial assay ([3H]hypoxanthine incorporation). Type of experiment: cell-based. To be noted: data not shown, read-out: IC50 against Plasmodium falciparum. The protocol:
Supplementary materials and methods.
The fungus was isolated in January 2012 as an endophyte from the holdfast of P. caniculata harvested in Roscoff (Britany, France). Both morphological assessment and internal transcribed spacer (ITS) sequencing were performed to identify it as Paradendryphiella salina. It is now maintained at the MCAM culture collection (Muséum National d’Histoire Naturelle, Paris) under the number PC 362H.
The anti-plasmodial activity was evaluated against the chloroquine-resistant FcB1/Colombia strain of Plasmodium falciparum. The assay was performed using the method of Desjardins (Desjardins et al., 1979). Extracts and pure compounds were diluted in Dimethyl Sulfoxyde (DMSO) and added to the culture medium (final concentration: 20 µg/mL) in 96-well microplates. Asynchronous parasite cultures were then added (1 % parasitemia and 1 % final hematocrite), and plates were maintained for 24 hours at 37 °C in a candle jar. […] After a cycle of freezing and thawing, the cells were harvested from each well onto glass fiber filters, and the dried filters were counted in a scintillation counter. The growth inhibition for each well was determined by comparison of the radioactivity incorporated into the treated culture with that in the control culture maintained on the same plate. […]

[2] abbreviates: Homo sapiens, MCF7, pure compounds.

Several values for one entry are separate records, joined by “and”; a condition that tells them apart may be missing. Equal values may be shown once. Read-outs that look alike come from different tables or passages of the source.

As for “4-hydroxy-tamoxifen [Hydroxi Tamoxifen, reference compound]”, the IC50 was found to be 14.5 µM with 3T3-F442A cells, 11.6 µM in the experiment on MCF7-Sh-WISP2 cells and 8.8 µM in the experiment with MCF7 cells (pure compounds).

Regarding `C[C@H](C(=O)O)[C@H]1CC[C@@]2(C)C3=C(C[C@@H](O)[C@]12C)[C@@]1(C)CC[C@H](O)C(C)(C)C1CC3` (relative stereo) [Compound 1, Dendryphiellide A], the IC50 is greater than 25 µg/mL in the experiment on 3T3-F442A cells (Mus musculus); greater than 60 µM with 3T3-F442A cells; 65 ± 4.2 µM in experiment [1]; greater than 25 µg/mL in the experiment on MCF7-Sh-WISP2 cells (Homo sapiens); greater than 60 µM in the experiment with MCF7-Sh-WISP2 cells; 20 µg/mL in the experiment with MCF7 cells (setting [2]).

For `COC(=O)CNC(=O)CC[C@@H](C)[C@H]1CC[C@H]2[C@H]3C(C[C@H](O)[C@]12C)[C@@]1(C)CC[C@@H](O)C[C@H]1C[C@H]3O` (stereo partly shown) [Compound 2, glycocholic acid methyl ester], the IC50 was > 25 µg/mL and > 50 µM in the experiment on 3T3-F442A cells (Mus musculus); 20.5 ± 3.5 µM in experiment [1]; > 25 µg/mL and > 50 µM in the experiment with MCF7-Sh-WISP2 cells (Homo sapiens); > 25 µg/mL and > 50 µM in the experiment with MCF7 cells (setting [2]).

Regarding `CS[C@]1(CO)C(=O)N(C)[C@](Cc2ccccc2)(SC)C(=O)N1C` [Compound 4, (3R, 6R) bisdethiodi(methylthio)hyalodendrin], the IC50 with 3T3-F442A cells (Mus musculus) was 92 µg/mL and 26 µM; in the experiment on MCF7-Sh-WISP2 cells (Homo sapiens) it was 24 µg/mL and 68 µM; in the experiment on MCF7 cells (setting [2]) it was 15 µg/mL and 42 µM.
